# In BindingDB's records for patent US11185537 (Novartis, 2021):
# Experiments:
# [1] = molecular target: Zinc finger protein Helios (Homo sapiens, UniProt Q9UKS7)
# [2] = molecular target: DNA-binding protein Ikaros (Human, UniProt Q13422)
# Chain of DNA-binding protein Ikaros (Q13422 whole entry): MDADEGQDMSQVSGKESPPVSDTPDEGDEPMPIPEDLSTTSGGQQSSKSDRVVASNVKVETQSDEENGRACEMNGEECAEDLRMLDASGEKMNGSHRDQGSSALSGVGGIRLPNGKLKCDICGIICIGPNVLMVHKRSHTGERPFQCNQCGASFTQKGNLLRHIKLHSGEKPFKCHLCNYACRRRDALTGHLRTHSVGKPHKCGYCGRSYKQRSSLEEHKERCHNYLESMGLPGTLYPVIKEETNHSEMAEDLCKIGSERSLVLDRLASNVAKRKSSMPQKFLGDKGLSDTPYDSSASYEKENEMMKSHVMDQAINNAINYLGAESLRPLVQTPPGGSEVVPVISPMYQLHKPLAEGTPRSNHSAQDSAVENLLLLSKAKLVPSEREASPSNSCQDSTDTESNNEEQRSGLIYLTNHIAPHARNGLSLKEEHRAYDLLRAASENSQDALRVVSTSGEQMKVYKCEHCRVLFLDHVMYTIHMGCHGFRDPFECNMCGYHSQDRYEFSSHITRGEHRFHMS
# Chain of Zinc finger protein Helios (Q9UKS7 whole entry): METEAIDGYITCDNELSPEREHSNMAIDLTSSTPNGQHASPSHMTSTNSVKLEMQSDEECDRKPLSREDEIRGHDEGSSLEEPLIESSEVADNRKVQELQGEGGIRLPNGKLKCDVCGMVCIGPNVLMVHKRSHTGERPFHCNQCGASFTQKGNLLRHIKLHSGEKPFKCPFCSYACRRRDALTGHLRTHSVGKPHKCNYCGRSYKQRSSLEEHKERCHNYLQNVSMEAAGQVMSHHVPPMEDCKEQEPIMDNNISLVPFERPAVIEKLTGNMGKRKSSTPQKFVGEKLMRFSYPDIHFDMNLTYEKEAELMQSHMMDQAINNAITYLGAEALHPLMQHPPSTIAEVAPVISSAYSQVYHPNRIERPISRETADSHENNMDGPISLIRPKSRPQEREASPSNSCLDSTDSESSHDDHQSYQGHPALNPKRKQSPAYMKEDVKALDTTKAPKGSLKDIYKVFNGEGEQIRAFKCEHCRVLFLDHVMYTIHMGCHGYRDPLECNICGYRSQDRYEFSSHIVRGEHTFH
structure (smiles),measurement,setting,value
"CN[C@H]1CC=CC[C@@H]1N(C)c1ccc2c(c1)CN(C1CCC(=O)NC1=O)C2=O (some centres not stated) [US11185537, Compound Mix]",EC50,[1],230 nM
same,EC50,[2],120 nM
